Where two headings read alike, the source gives them in different places. Starred links: 1 amine or outer side, 2 acyl side, 3 side chain; linkers in the order of their positions; H or OH if unused. Non-standard residues stand in square brackets, D forms with d. Residues, ends and D or L forms follow the SMILES beside them. *: point of attachment. X4 = Cc1cc(F)cc(-c2cnc(NCCNC(=O)CCOCCOCCOCCOCCC(=O)*)c(-c3nc4ccc(Cl)cc4[nH]3)c2N2CCC(N)CC2)c1; X1 = Cc1cc(F)cc(-c2cnc(NCCNC(=O)CCOCCC(=O)*)c(-c3nc4ccc(Cl)cc4[nH]3)c2N2CCC(N)CC2)c1; Dolaproine = CO[C@@H]([C@@H]1CCCN1)[C@@H](C)C(=O)O; Dil = CC[C@H](C)[C@H](NC)[C@@H](CC(=O)O)OC; PABC = O=C(OCc1ccc(N[*:1])cc1)[*:2]; X2 = C[C@@H](N*)[C@@H](O)c1ccccc1; Cya = N[C@@H](CS(=O)(=O)O)C(=O)O; Cit = NC(=O)NCCC[C@H](N)C(=O)O; NMeV = CN[C@H](C(=O)O)C(C)C
What was measured:
Assay type in all cases: cell-based
[1] = molecular target: T1, human somatostatin receptor subtype 2 (Homo sapiens, UniProt P30874); experiment: Functional cAMP assay for SSTR2 agonists (HTRF) in CHO-K1 cells; details: CHO-K1 cells stably expressing human SST2, 20 min
T1 construct: expressed in transfected cells
In short: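 CHO-K1 cells stably expressing receptor, plated 4 days before assay, treated 20 min at 37° C. with compound (typically 0-10,000 nM final) plus IBMX and 1.6 μM NKH477 to raise cAMP. HTRF read, 665/620 nm ratio; cAMP from standard curve, EC50 fitted.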

SST2 = molecular target: T2, SST2 (Homo sapiens, UniProt P30874); experiment: PathHunter CHO-K1 SST2 internalization assay; details: PathHunter CHO-K1 SST2, 90 min
T2 construct: host or cells: PathHunter CHO-K1 SST2 cells
Method: SMDCs of the present invention were assessed in vitro using the human PathHunter CHO-K1 SST2 β-arrestin2 and PathHunter CHO-K1 SST2 Internalization Assays from DiscoverX. The CHO-K cells were seeded in 20 μLs of cell culture medium in a white-walled 384 well tissue culture-compatible plate at a density of 2500 cells/well. After a 48-hour incubation, cells were treated with 5 μLs of a 1:3 serially diluted SST2 SMDC prepared at 5× concentration with a final top compound concentration of 10 uM for 90 min at 37 C and in 5% CO2. 11 dilutions were tested as well as one treatment that was compound free. After incubation, the media containing treatments were discarded and 20 μL of a working solution of Beta-Glo from Promega Beta-Glo Assay System was added to each well. The plate was then incubated for 60 min at room temperature in the dark. Luminescence was measured using a Tecan plate reader. IC50 curves were generated using the nonlinear regression analysis (four-parameters) with GraphPad Prism 9. Results were the average of duplicates and are corrected for background.

[2] = system: NCI-H524 (ATCC) human small cell lung cancer cells
Method: SMDCs of the present invention were assessed in an in vitro assay evaluating the inhibition of cell proliferation. NCI-H524 (ATCC) human small cell lung cancer cells were plated in 96-well V-bottom plates (Costar) at a concentration of 5,000 cells/well. 24 h later, the cells were treated for 2 h with a SMDC. SMDC starting dose was 1 uM and two-fold serial dilutions were done for a total of 11 points. After 2 h of treatment, cells were spun down, and the drug-containing media was removed, and fresh complete media was added and used to resuspend the cells, which were spun again. After removal of the media, the cells were resuspended in complete medium and incubated for an additional 70 h. Cell proliferation was assessed using the CellTiter Glo Assay according to the standard protocol (Promega). Luminescence was measured using a TECAN plate reader. Percent proliferation inhibition was calculated using the following formula: % inhibition=(Luminescence Control−Luminescence Treatment)/Luminescence Control*100. IC50 curves were generated using the nonlinear regression analysis (four-parameter) with GraphPad Prism 9.

[3] = 2 h treatment, washout, additional 70 h, read-out: H524 EC50

T1 sequence (P30874 whole entry): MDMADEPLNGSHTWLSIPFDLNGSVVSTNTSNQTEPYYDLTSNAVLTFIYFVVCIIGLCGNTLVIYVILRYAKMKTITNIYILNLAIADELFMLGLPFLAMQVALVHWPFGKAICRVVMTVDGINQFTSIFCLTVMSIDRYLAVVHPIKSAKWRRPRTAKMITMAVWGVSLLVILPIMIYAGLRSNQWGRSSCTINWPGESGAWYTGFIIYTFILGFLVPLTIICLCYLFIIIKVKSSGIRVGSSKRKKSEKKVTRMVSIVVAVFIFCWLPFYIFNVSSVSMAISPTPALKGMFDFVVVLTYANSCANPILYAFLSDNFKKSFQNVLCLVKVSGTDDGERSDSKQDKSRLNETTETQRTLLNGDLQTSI
T2 sequence (P30874 whole entry): as above

Row | SMILES | EC50 ([1]; read-out: hSST2 cAMP Avg EC50) [nM] | EC50 (SST2; read-out: Internalization EC50) [nM] | EC50 ([2]; 2 h) [nM] | EC50 ([1]; hSST2 cAMP Avg EC50 (nM)) [nM] | EC50 (SST2; Internalization EC50 (nM)) [nM] | EC50 [2, 3] [nM]
1 | CC[C@H](C)[C@@H]([C@@H](CC(=O)N1CCC[C@H]1[C@H](OC)[C@@H](C)C(=O)N[C@H](C)[C@@H](O)c1ccccc1)OC)N(C)C(=O)[C@@H](NC(=O)[C@H](C(C)C)N(C)C(=O)OCc1ccc(NC(=O)[C@H](C)NC(=O)[C@@H](NC(=O)CCOCCC(=O)N[C@@H](CS(=O)(=O)O)C(=O)NCCNc2ncc(-c3cc(C)cc(F)c3)c(N3CCC(N)CC3)c2-c2nc3ccc(Cl)cc3[nH]2)C(C)C)c(O[C@@H]2O[C@H](CO)[C@@H](O)[C@H](O)[C@H]2O)c1)C(C)C [Compound 66] | 0.13 | 15 | 300 | – | – | –
2 | CC[C@@]1(O)C(=O)OCc2c1cc1n(c2=O)Cc2c-1nc1cc(F)c(C)c3c1c2[C@@H](NC(=O)OCc1ccc(NC(=O)[C@H](CCCNC(N)=O)NC(=O)[C@@H](NC(=O)CN2CCN(CC(=O)O)CCN(CC(=O)NCCOCCOCCOCCOCCC(=O)NCCNc4ncc(-c5cc(C)cc(F)c5)c(N5CCC(N)CC5)c4-c4nc5ccc(Cl)cc5[nH]4)CC2)C(C)C)cc1)CC3 [Compound 93] | – | – | – | 0.48 | 4.5 | 130
3 | CC[C@@]1(O)C(=O)OCc2c1cc1n(c2=O)Cc2c-1nc1cc(F)c(C)c3c1c2[C@@H](NC(=O)OCc1ccc(NC(=O)[C@H](CCCNC(N)=O)NC(=O)[C@@H](NC(=O)CCOCCOCCOCCOCCC(=O)NCCNc2ncc(-c4cc(C)cc(F)c4)c(N4CCC(N)CC4)c2-c2nc4ccc(Cl)cc4[nH]2)C(C)C)cc1C(=O)NCCN)CC3 [Compound 91] | – | – | – | 0.18 | 5.6 | 190
4 | CC[C@H](C)[C@@H]([C@@H](CC(=O)N1CCC[C@H]1[C@H](OC)[C@@H](C)C(=O)N[C@H](C)[C@@H](O)c1ccccc1)OC)N(C)C(=O)[C@@H](NC(=O)[C@H](C(C)C)N(C)C(=O)OCc1ccc(NC(=O)[C@H](CCCNC(N)=O)NC(=O)[C@@H](NC(=O)[C@H](CCC(N)=O)NC(=O)CCOCCC(=O)NCCNc2ncc(-c3cc(C)cc(F)c3)c(N3CCC(N)CC3)c2-c2nc3ccc(Cl)cc3[nH]2)C(C)C)cc1)C(C)C [Compound 56] (X1-QV[Cit][PABC][NMeV]V[Dil][Dolaproine]-X2) | 0.23 | 15.1 | 10.3 | – | – | –
5 | CC[C@H](C)[C@@H]([C@@H](CC(=O)N1CCC[C@H]1[C@H](OC)[C@@H](C)C(=O)N[C@H](C)[C@@H](O)c1ccccc1)OC)N(C)C(=O)[C@@H](NC(=O)[C@H](C(C)C)N(C)C(=O)OCc1ccc(NC(=O)[C@H](CCCNC(N)=O)NC(=O)[C@@H](NC(=O)CCOCCC(=O)N[C@@H](CS(=O)(=O)O)C(=O)NCCNc2ncc(-c3cc(C)cc(F)c3)c(N3CCC(N)CC3)c2-c2nc3ccc(Cl)cc3[nH]2)C(C)C)cc1)C(C)C [Compound 70] | 0.44 | 17 | 68 | – | – | –
6 | CC[C@H](C)[C@@H]([C@@H](CC(=O)N1CCC[C@H]1[C@H](OC)[C@@H](C)C(=O)N[C@H](C)[C@@H](O)c1ccccc1)OC)N(C)C(=O)[C@@H](NC(=O)[C@H](C(C)C)N(C)C(=O)OCc1ccc(NC(=O)[C@H](CCCNC(N)=O)NC(=O)[C@@H](NC(=O)[C@H](CCC(N)=O)NC(=O)CCOCCC(=O)NCCNc2ncc(-c3cc(C)cc(F)c3)c(N3CCC(N)CC3)c2-c2nc3ccc(Cl)cc3[nH]2)C(C)C)cc1C(N)=O)C(C)C [Compound 112] | 0.16 | 2.9 | 10 | – | – | –
7 | CC[C@H](C)[C@@H]([C@@H](CC(=O)N1CCC[C@H]1[C@H](OC)[C@@H](C)C(=O)N[C@H](C)[C@@H](O)c1ccccc1)OC)N(C)C(=O)[C@@H](NC(=O)[C@H](C(C)C)N(C)C(=O)OCc1ccc(NC(=O)[C@H](C)NC(=O)[C@@H](NC(=O)CCOCCOCCOCCOCCC(=O)NCCNc2ncc(-c3cc(C)cc(F)c3)c(N3CCC(N)CC3)c2-c2nc3ccc(Cl)cc3[nH]2)C(C)C)c(O[C@@H]2O[C@H](C(=O)O)[C@@H](O)[C@H](O)[C@H]2O)c1)C(C)C [Compound 150] | 0.18 | 5.6 | 9.3 | – | – | –
8 | COc1cc2cc(c1Cl)N(C)C(=O)CC(OC(=O)[C@@H](C)N(C)C(=O)CCS[C@H]1CC(=O)N(CC3CCC(C(=O)NCCCC[C@H](N)C(=O)NCCNc4ncc(-c5cc(C)cc(F)c5)c(N5CCC(N)CC5)c4-c4nc5ccc(Cl)cc5[nH]4)CC3)C1=O)[C@]1(C)OC1[C@@H](C)C1C[C@@](O)(NC(=O)O1)[C@H](OC)/C=C/C=C(\C)C2 (stereo partly drawn) [Compound 7] | 0.15 | 21 | 355 | – | – | –
9 | CC[C@H](C)[C@@H]([C@@H](CC(=O)N1CCC[C@H]1[C@H](OC)[C@@H](C)C(=O)N[C@H](C)[C@@H](O)c1ccccc1)OC)N(C)C(=O)[C@@H](NC(=O)[C@H](C(C)C)N(C)C(=O)OCc1ccc(NC(=O)[C@H](CCCNC(N)=O)NC(=O)[C@@H](NC(=O)CCOCCOCCC(=O)NCCNc2ncc(-c3cc(C)cc(F)c3)c(N3CCC(N)CC3)c2-c2nc3ccc(Cl)cc3[nH]2)C(C)C)c(O[C@@H]2O[C@H](C(=O)O)[C@@H](O)[C@H](O)[C@H]2O)c1)C(C)C [Compound 137] | 0.51 | 4.6 | 6.7 | – | – | –
10 | CCC(C)C(C(CC(=O)N1CCCC1C(OC)C(C)C(=O)NC(C)C(O)c1ccccc1)OC)N(C)C(=O)C(NC(=O)C(C(C)C)N(C)C(=O)OCc1ccc(NC(=O)[C@H](CCCNC(N)=O)NC(=O)[C@@H](NC(=O)CCOCCOCCC(=O)NCCNc2ncc(-c3cc(C)cc(F)c3)c(N3CCC(N)CC3)c2-c2nc3ccc(Cl)cc3[nH]2)C(C)C)cc1)C(C)C (stereo in doubt) [Compound 24] | 0.2 | 12 | 13.4 | – | – | –
11 | CC[C@H](C)[C@@H]([C@@H](CC(=O)N1CCC[C@H]1[C@H](OC)[C@@H](C)C(=O)N[C@H](C)[C@@H](O)c1ccccc1)OC)N(C)C(=O)[C@@H](NC(=O)[C@H](C(C)C)N(C)C(=O)OCc1ccc(NC(=O)[C@H](CCCNC(N)=O)NC(=O)[C@@H](NC(=O)CCOCCOCCOCCOCCC(=O)NCCNc2ncc(-c3cc(C)cc(F)c3)c(N3CCC(N)CC3)c2-c2nc3ccc(Cl)cc3[nH]2)C(C)C)cc1C(=O)NCC(N)=O)C(C)C [Compound 124] | 0.16 | 5.6 | 5.3 | – | – | –
12 | CC[C@H](C)[C@@H]([C@@H](CC(=O)N1CCC[C@H]1[C@H](OC)[C@@H](C)C(=O)N[C@H](C)[C@@H](O)c1ccccc1)OC)N(C)C(=O)[C@@H](NC(=O)[C@H](C(C)C)N(C)C(=O)OCc1ccc(NC(=O)[C@H](CCCNC(N)=O)NC(=O)[C@@H](NC(=O)CNC(=O)[C@H](CCC(=O)O)NC(=O)[C@H](CCC(=O)O)NC(=O)CCOCCC(=O)NCCNc2ncc(-c3cc(C)cc(F)c3)c(N3CCC(N)CC3)c2-c2nc3ccc(Cl)cc3[nH]2)C(C)C)cc1)C(C)C [Compound 111] (X1-EEGV[Cit][PABC][NMeV]V[Dil][Dolaproine]-X2) | 1.2 | 22 | 360 | – | – | –
13 | CC[C@H](C)[C@@H]([C@@H](CC(=O)N1CCC[C@H]1[C@H](OC)[C@@H](C)C(=O)N[C@H](C)[C@@H](O)c1ccccc1)OC)N(C)C(=O)[C@@H](NC(=O)[C@H](C(C)C)N(C)C(=O)OCc1ccc(NC(=O)[C@H](CCCNC(N)=O)NC(=O)[C@@H](NC(=O)[C@H](CS(=O)(=O)O)NC(=O)[C@H](CCC(=O)O)NC(=O)CCOCCOCCOCCOCCC(=O)NCCNc2ncc(-c3cc(C)cc(F)c3)c(N3CCC(N)CC3)c2-c2nc3ccc(Cl)cc3[nH]2)C(C)C)cc1)C(C)C [Compound 114] (X4-E[Cya]V[Cit][PABC][NMeV]V[Dil][Dolaproine]-X2) | 0.22 | 10 | 100 | – | – | –
